Source: ChEMBL document CHEMBL1201862, “PubChem BioAssay data set” (2004)
Calls of active or inactive are those of the source.

Legend:
cells [1] = assay type: functional, cell-based
cells [2] = assay type: functional, cell-based; remark: listed apart in the source
[3] = viability loss in human Jurkat cells – cell-based, luminescence, cytotoxicity control for P. falciparum gametocyte viability project, dose response (AID 1117277); assay type: functional;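 also: potency reflects loss of cellular ATP meaning fewer viable cells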
[4] = viability inhibitors of stage V gametocytes – luminescence, dose response (AID 1117278); assay type: functional, cell-based;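 also: gametocytes exposed to compound for 24 hours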
[5] = biological target: T1, Mannose-6-phosphate isomerase (Homo sapiens, UniProt P34949); assay: MPI enzyme activity inhibition – biochemical, fluorescence intensity, coupled assay, primary screen (AID 1209)
T1 sequence (P34949 whole entry): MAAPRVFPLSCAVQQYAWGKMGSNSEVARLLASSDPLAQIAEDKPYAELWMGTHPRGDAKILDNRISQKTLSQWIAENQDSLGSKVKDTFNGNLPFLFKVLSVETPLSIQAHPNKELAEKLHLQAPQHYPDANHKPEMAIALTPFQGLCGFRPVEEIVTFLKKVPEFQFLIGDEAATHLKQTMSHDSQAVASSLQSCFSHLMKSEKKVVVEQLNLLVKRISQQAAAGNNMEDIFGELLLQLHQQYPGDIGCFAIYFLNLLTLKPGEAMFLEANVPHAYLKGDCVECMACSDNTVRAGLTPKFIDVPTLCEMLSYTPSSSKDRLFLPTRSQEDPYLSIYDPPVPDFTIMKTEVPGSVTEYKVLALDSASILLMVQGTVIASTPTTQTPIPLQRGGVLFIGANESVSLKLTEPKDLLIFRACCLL

[6] = toxicity to human HepG2 hepatoma cells – cell-based, plate reader, dry powder samples, cytotoxicity control, dose response (AID 1159569); assay type: functional;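 also: inhibitor potency with signal falling toward the positive control level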
[7] = growth inhibition of PfATP4-mutant resistant parasites – NITD609-resistant line, SYBR Green, dry powder, dose response (AID 1159571); assay type: functional, cell-based;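 also: parasites synchronized at ring stage by sorbitol before testing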
[8] = P. falciparum Dd2 growth inhibitors, dose response, SYBR Green, cherry-picked samples (AID 1159567); assay type: functional, cell-based
[9] = Dd2 malaria parasite growth inhibition potency – SYBR Green, dry powder samples, dose response (AID 1159566); assay type: functional, cell-based;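 also: potency for growth inhibition with lower SYBR green DNA signal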
[10] = growth inhibition of yeast DHODH-expressing 3D7 parasites – SYBR Green, dry powder samples, dose response (AID 1159570); assay type: functional, cell-based;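 also: parasite growth measured after 72 hours of compound exposure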
[11] = toxicity to human hepatoma HepG2 cells – cell-based, cherry-picked samples, cytotoxicity control, dose response (AID 1159577); assay type: functional
[12] = viability loss of HPDE-C7K cells – cell-based, fluorescence, HTS, primary screen (AID 431); assay type: functional; conditions: Homo sapiens
[13] = biological target: T1, Mannose-6-phosphate isomerase; assay: MPI inhibition at elevated mannose 6-phosphate – biochemical, fluorescence intensity, high mannose 6-phosphate, primary screen (AID 1220)
[14] = HPDE-C7 pancreatic duct cell viability loss – fluorescence, HTS (AID 430); assay type: functional, cell-based; conditions: Homo sapiens
Leucine aminopeptidase = biological target: T2, Leucine aminopeptidase (Plasmodium falciparum 3D7, UniProt Q8IL11); assay: P. falciparum M17LAP inhibitors, primary screen, biochemical, fluorogenic H-Leu-NHMec substrate, 1536-well (AID 1619); assay type: functional
T2 sequence (Q8IL11 whole entry): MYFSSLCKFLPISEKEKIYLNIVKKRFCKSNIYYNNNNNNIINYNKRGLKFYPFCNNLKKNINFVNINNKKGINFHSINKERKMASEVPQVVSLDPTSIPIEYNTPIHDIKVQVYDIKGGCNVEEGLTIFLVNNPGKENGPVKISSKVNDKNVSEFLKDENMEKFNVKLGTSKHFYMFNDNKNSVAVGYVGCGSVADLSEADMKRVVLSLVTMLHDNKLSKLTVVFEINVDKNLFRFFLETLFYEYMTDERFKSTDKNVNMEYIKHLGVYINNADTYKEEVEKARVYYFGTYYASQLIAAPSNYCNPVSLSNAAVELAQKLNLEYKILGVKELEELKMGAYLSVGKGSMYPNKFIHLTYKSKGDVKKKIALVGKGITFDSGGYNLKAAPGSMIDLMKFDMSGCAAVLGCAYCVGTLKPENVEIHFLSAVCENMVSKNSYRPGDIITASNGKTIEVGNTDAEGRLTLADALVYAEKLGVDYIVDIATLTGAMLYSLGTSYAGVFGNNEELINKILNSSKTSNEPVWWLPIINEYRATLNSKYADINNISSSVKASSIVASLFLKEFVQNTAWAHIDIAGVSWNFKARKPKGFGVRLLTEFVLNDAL

[15] = biological target: DNA dC->dU-editing enzyme APOBEC-3G (Homo sapiens, UniProt Q9HC16); assay: Dose Response confirmation of small molecule APOBEC3G DNA Deaminase Inhibitors via a fluorescence-based single-stranded DNA deaminase assay. [Related pubchem assays (depositor defined):AID493012, AID493028]; assay type: functional
DNA dC->dU-editing enzyme APOBEC-3G, sequence (Q9HC16 whole entry): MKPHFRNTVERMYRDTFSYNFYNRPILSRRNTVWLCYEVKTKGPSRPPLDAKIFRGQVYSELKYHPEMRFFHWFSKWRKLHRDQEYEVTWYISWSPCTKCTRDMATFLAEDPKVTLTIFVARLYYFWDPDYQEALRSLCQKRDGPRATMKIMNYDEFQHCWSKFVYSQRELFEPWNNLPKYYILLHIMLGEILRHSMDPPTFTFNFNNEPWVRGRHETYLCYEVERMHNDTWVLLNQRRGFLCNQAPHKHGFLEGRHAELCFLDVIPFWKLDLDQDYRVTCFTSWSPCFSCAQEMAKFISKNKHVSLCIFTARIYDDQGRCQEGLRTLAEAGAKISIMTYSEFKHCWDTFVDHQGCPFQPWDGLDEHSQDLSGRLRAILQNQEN

Ion channel NompC = Ion channel NompC (Danio rerio, UniProt Q7T1G6); assay: Fluorescence counterscreen assay for TRPML3 agonists: dose response cell-based high-throughput screening assay to identify agonists of the transient receptor potential channel N1 (TRPN1). [Related pubchem assays: 1526, 1424, 1448 ]; assay type: functional
Ion channel NompC, sequence (Q7T1G6 whole entry): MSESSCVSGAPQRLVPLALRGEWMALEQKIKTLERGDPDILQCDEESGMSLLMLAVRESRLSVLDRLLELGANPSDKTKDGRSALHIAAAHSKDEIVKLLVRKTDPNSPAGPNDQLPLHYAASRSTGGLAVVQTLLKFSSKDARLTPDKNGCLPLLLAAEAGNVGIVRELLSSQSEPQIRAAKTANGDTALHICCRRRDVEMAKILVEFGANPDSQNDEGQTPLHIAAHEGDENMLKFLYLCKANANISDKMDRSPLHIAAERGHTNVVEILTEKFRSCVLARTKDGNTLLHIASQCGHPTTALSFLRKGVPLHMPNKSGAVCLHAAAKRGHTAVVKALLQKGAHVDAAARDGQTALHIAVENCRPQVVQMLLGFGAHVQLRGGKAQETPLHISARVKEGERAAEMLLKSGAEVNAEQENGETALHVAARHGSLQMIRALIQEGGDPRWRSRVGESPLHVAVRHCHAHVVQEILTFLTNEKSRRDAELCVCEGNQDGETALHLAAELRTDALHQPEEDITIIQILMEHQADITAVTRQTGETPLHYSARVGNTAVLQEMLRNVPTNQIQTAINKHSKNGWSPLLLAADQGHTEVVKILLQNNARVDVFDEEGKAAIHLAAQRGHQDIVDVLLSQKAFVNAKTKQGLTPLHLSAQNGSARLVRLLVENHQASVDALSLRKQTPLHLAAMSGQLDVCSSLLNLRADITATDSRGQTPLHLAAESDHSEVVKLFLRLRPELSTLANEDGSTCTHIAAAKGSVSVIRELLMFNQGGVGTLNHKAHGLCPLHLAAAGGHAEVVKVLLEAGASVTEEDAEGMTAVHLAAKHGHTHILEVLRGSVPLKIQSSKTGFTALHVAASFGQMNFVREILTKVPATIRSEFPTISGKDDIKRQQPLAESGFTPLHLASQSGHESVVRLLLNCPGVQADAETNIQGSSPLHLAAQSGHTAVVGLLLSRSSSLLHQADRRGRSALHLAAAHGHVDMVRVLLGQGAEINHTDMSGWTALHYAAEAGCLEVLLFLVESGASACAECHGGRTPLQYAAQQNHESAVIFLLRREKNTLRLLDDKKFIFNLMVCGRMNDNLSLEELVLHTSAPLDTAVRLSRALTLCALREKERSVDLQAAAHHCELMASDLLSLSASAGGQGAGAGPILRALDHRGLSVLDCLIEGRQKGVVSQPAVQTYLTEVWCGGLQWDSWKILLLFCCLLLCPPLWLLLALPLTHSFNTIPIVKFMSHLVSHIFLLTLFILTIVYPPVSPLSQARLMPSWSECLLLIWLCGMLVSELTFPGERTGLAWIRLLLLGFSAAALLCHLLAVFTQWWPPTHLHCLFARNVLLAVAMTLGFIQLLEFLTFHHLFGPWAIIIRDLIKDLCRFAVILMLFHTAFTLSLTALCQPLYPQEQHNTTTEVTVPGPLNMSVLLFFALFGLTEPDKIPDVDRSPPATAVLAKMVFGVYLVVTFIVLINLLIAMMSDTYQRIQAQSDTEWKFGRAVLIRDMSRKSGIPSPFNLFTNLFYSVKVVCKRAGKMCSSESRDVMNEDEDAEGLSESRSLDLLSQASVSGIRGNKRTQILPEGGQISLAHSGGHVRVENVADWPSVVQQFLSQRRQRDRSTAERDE

Mucolipin-3 = biological target: T3, Mucolipin-3 (Homo sapiens, UniProt Q8TDD5); assay: Dose response cell-based high-throughput screening assay for agonists of the transient receptor potential channel ML3 (TRPML3). [Related pubchem assays: 1526, 1424, 1448 ]; assay type: functional
T3 sequence (Q8TDD5 whole entry): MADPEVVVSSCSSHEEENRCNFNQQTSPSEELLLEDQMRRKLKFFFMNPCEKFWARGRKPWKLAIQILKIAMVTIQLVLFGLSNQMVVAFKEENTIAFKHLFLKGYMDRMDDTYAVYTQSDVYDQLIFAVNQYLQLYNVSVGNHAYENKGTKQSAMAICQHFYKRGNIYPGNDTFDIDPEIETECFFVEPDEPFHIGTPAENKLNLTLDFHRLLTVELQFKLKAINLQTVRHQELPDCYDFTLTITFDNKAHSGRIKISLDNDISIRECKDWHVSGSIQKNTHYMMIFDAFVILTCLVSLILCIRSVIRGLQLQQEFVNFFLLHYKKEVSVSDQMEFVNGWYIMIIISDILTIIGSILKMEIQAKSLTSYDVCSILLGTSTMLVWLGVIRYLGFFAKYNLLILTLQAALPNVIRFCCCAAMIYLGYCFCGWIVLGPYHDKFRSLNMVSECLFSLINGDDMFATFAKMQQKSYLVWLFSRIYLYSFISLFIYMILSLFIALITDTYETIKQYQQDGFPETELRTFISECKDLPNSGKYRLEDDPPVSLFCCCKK

Question: Which results are given for c1ccc(CSc2nnc(-c3ccco3)o2)cc1?
Answer: EC50 (cells [1]): > 350 µM (not active); EC50 (cells [2]): > 350 µM (not active)

Question: What does the source list for CC(C)CN1CCN(Cc2nc(C(C)C)cs2)CC1CCO (stereo unspecified)?
Answer: IC50 [3]: > 83.3 µM (inactive); IC50 [4]: > 109 µM (inactive)

Question: For Cc1c(NC(=O)CSc2ccccc2F)c(=O)n(-c2ccccc2)n1C, which IC50 [5] is on record?
Answer: > 50 µM (not active)

Question: What does the source list for COCC(=O)Nc1ccc(Br)cc1C?
Answer: IC50 [3]: > 83.3 µM (inactive); IC50 [4]: > 109 µM (inactive)

Question: With COc1ccccc1CN1C[C@@H]2N[C@H](C1)[C@@H]2c1ccc(-c2cccnc2)cc1 as the molecule, how does the AC50 [6] read?
Answer: 29.6 µM (active)

Question: What about the AC50 [7] of the same molecule?
Answer: 1.78 µM (active)

Question: And the AC50 [8]?
Answer: 2.1 µM (active)

Question: And the AC50 [9]?
Answer: 1.35 µM (active)

Question: And the AC50 [10]?
Answer: 3.2 µM (active)

Question: What about the AC50 [11] of the same molecule?
Answer: 28.5 µM (active)

Question: With N#Cc1c(NCCCO)nc(NCc2ccccc2)c2c1CCN(Cc1ccccc1)C2 as the molecule, how does the EC50 [12] read?
Answer: 11.9 µM (active)

Question: And the IC50 [13]?
Answer: > 50 µM (not active)

Question: What about the EC50 [14] of the same molecule?
Answer: 19.8 µM (active)

Question: Which IC50 (Leucine aminopeptidase) does the source give for Cc1nc(NS(=O)(=O)c2ccccc2)sc1C(=O)NN here?
Answer: 114 µM (active)

Question: With COc1ccc(Cc2nnc(S)n2N)cc1OC as the molecule, how does the IC50 [15] read?
Answer: 17.8 µM (active)

Question: What about the IC50 [5] of the same molecule?
Answer: 31.9 µM (active)

Question: For CC(C)[C@H](NS(=O)(=O)c1ccc2c(c1)OCCO2)C(=O)OCC(=O)Nc1cccc(Cl)c1Cl, which EC50 (Ion channel NompC) is on record?
Answer: > 29.9 µM (not active)

Question: What about the EC50 (Mucolipin-3) of the same molecule?
Answer: 3.69 µM (active)
